Source: US20260374766A1, “METHODS FOR TREATING CANCER” (Antares Therapeutics, Inc., priority 2022, published 2026)

Key:
[1] = biological target: T1, p53 Y220C mutant protein (amino acid residues 94-293) (Homo sapiens, UniProt P04637, Y220C); assay: Surface Plasmon Resonance (SPR) assay, Kd_kinetic; format: binding; conditions: SPR, kinetic KD, p53 Y220C; read-out: SPR P53 Y220C KD kinetic
T1 construct: p53 Y220C mutant protein (amino acid residues 94-293)
Outline: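 Surface plasmon resonance is run at 16 or 20 °C in 50 mM Tris pH 7.5 containing 100 mM NaCl, 1 mM DTT, 0.01% Brij35, 0.05% Tween-20 and 1% DMSO. Association and dissociation data are fitted to a 1:1 model.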

[2] = biological target: T1, p53 Y220C mutant protein (amino acid residues 94-293); assay: Thermal Shift Assay (TSA), dTM; format: binding; conditions: thermal shift; for ΔTm at 10 µM: 10 uM compound, read-out: TSA P53 Y220C dTM (10 uM); for ΔTm at 100 µM: 100 uM compound, read-out: TSA P53 Y220C dTM (100 uM)
Outline: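 Recombinant p53 Y220C core (residues 94-293) at 5 μM was incubated with 10 μM or 100 μM compound for 3 hours at 20 °C in 20 mM HEPES pH7.4, 100 mM NaCl, 0.01% Pluronic F-127, 1% DMSO with 400-fold diluted Sypro Orange. Melting was followed from 30 °C to 50 °C at 0.03 °C/second, and TM came from a Boltzmann two-state fit.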

p53 Y220C = p53 Y220C (Homo sapiens, UniProt P04637, Y220C); assay: Luciferase Reporter Assay (Luc), p53 response element, NClH1299 cells with inducible p53 Y220C; format: cell-based; conditions: luciferase reporter, NClH1299 inducible p53 Y220C, 6 hour; for Emax: 10 uM tool compound as positive control; for AC50: read-out: Luc P53 Y220C AC50
Outline: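 Luminescence readout (One-Glo, 5 min shaking at RT, read at once) after 6 h compound exposure; cells pre-induced 24 h with 0.5 ug/mL doxycycline, 5,000/well.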

NUGC3 p53 Y220C = assay: Cell Proliferation Assay (CellTiter-Glo, CTG), NUGC3 p53 Y220C; format: cell-based; conditions: Homo sapiens, NUGC-3, 120 h, CellTiter-Glo, NUGC3 p53 Y220C, 5 days
Outline: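 Tet-One inducible p53 Y220C or R273H constructs were stably introduced into NCI-H1299 by lentiviral transduction; NUGC3 was used as is. Cells (250-500 per well) were exposed to compound for 5 days, then CellTiter-Glo was added for 10 min at room temperature and IC50 was calculated from luminescence.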

H1299 p53 Y220C = assay: Cell Proliferation Assay (CellTiter-Glo, CTG), H1299 p53 Y220C (NClH1299-inducible p53 Y220C); format: cell-based; conditions: Homo sapiens, NCI-H1299, 120 h, CellTiter-Glo, H1299 p53 Y220C, 5 days
Outline: (§1)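 Cells seeded at 250-500 per well and exposed to compound for 5 days. Viability read by CellTiter-Glo luminescence after 10 min at room temperature; IC50 calculated. H1299 lines carry Tet-One inducible p53 mutant constructs introduced by lentiviral transduction.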

H1299 p53 R273H = assay: Cell Proliferation Assay (CellTiter-Glo, CTG), H1299 p53 R273H (NClH1299-inducible p53 R273H); format: cell-based; conditions: Homo sapiens, NCI-H1299, 120 h, CellTiter-Glo, H1299 p53 R273H, 5 days
Outline: as §1

SMILES	Kd [1]	ΔTm at 10 µM [2]	ΔTm at 100 µM [2]	Emax (p53 Y220C)	AC50 (p53 Y220C)	IC50 (NUGC3 p53 Y220C)	IC50 (H1299 p53 Y220C)	IC50 (H1299 p53 R273H)
CNC(=O)c1ccc(NCC#Cc2nc3c(NC4CC5(C4)CN(CC(F)F)C5)cccn3c2SC(F)(F)F)c(OC)c1 [Example 173]	10 to 100 nM	5 to 10 °C	5 to 10 °C	70 to 80%	750 to 1500 nM	1500 to 3000 nM	750 to 1500 nM	5000 to 8000 nM
CNC(=O)c1ccc(NCC#Cc2nc3c(N[C@H]4CCNC(=O)C4)cccn3c2SC(F)(F)F)c(OC)c1 [Example 174]	< 10 nM	≥ 10 °C	≥ 10 °C	80 to 90%	1500 to 3000 nM	750 to 1500 nM	1500 to 3000 nM	≥ 10000 nM
CNC(=O)c1ccc(NCC#Cc2nc3c(N[C@@H]4CCNC(=O)C4)cccn3c2SC(F)(F)F)c(OC)c1 [Example 175]	10 to 100 nM	5 to 10 °C	5 to 10 °C	< 70%	> 3000 nM	> 3000 nM	> 3000 nM	≥ 10000 nM
CNC(=O)c1ccc(NCC#Cc2nc3c(N[C@@H]4CCn5cncc5C4)cccn3c2SC(F)(F)F)c(OC)c1 [Example 176]	10 to 100 nM	5 to 10 °C	≥ 10 °C	70 to 80%	750 to 1500 nM	1500 to 3000 nM	750 to 1500 nM	5000 to 8000 nM
CNC(=O)c1ccc(NCC#Cc2nc3c(N[C@H]4CCn5cncc5C4)cccn3c2SC(F)(F)F)c(OC)c1 [Example 177]	< 10 nM	≥ 10 °C	≥ 10 °C	80 to 90%	< 750 nM	750 to 1500 nM	< 750 nM	5000 to 8000 nM
CNC(=O)c1ccc(NCC#Cc2nc3c(N[C@H]4CCn5nccc5C4)cccn3c2SC(F)(F)F)c(OC)c1 [Example 178]	10 to 100 nM	5 to 10 °C	5 to 10 °C	< 70%	1500 to 3000 nM	750 to 1500 nM	750 to 1500 nM	5000 to 8000 nM
CNC(=O)c1ccc(NCC#Cc2nc3c(N[C@@H]4CCn5nccc5C4)cccn3c2SC(F)(F)F)c(OC)c1 [Example 179]	10 to 100 nM	5 to 10 °C	5 to 10 °C	< 70%	1500 to 3000 nM	1500 to 3000 nM	1500 to 3000 nM	≥ 10000 nM
CNC(=O)c1ccc(NCC#Cc2nc3c(N[C@@H]4CCN(C)C[C@@H]4F)cc(F)cn3c2SC(F)(F)F)c(OC)c1 [Example 180]	< 10 nM	≥ 10 °C	≥ 10 °C	80 to 90%	< 750 nM	750 to 1500 nM	< 750 nM	5000 to 8000 nM
CNC(=O)c1ccc(NCC#Cc2nc3c(NCC4(F)CN(C)C4)cccn3c2SC(F)(F)F)c(OC)c1 [Example 181]	10 to 100 nM	5 to 10 °C	5 to 10 °C	80 to 90%	1500 to 3000 nM	1500 to 3000 nM	750 to 1500 nM	5000 to 8000 nM
CNC(=O)c1ccc(NCC#Cc2nc3c(N[C@@H]4CCC(=O)NC4)cccn3c2SC(F)(F)F)c(OC)c1 [Example 182]	10 to 100 nM	5 to 10 °C	5 to 10 °C	80 to 90%	1500 to 3000 nM	1500 to 3000 nM	1500 to 3000 nM	≥ 10000 nM
CNC(=O)c1ccc(NCC#Cc2nc3c(N[C@H]4CCC(=O)NC4)cccn3c2SC(F)(F)F)c(OC)c1 [Example 183]	10 to 100 nM	5 to 10 °C	5 to 10 °C	80 to 90%	1500 to 3000 nM	750 to 1500 nM	1500 to 3000 nM	≥ 10000 nM
CNC(=O)c1ccc(NCC#Cc2nc3c(N[C@H]4Cc5cncn5C4)cccn3c2SC(F)(F)F)c(OC)c1 [Example 184]	< 10 nM	5 to 10 °C	≥ 10 °C	70 to 80%	1500 to 3000 nM	750 to 1500 nM	1500 to 3000 nM	5000 to 8000 nM
CNC(=O)c1cc(NCC#Cc2cc3c(N[C@@H]4CCN(C)C[C@@H]4F)nccn3c2SC(F)(F)F)c2nccn2c1 [Example 186, 8-{[3-(1-{[(3S,4R)-3-fluoro-1-methylpiperidin-4-yl]amino}-6-[(trifluoromethyl)sulfanyl]pyrrolo[1,2-a]pyrazin-7-yl)prop-2-yn-1-yl]amino}-N-methylimidazo[1,2-a]pyridine-6-carboxamide]	< 10 nM	≥ 10 °C		> 90%	< 750 nM	< 750 nM	< 750 nM	≥ 10000 nM
CNC(=O)c1ccc(NCC#Cc2nc3c(N[C@H]4CCC(=O)N(C)C4)cccn3c2SC(F)(F)F)c(OC)c1 [Example 187]	< 10 nM	≥ 10 °C	≥ 10 °C	80 to 90%	< 750 nM	< 750 nM	< 750 nM	5000 to 8000 nM
CNC(=O)c1ccc(NCC#Cc2nc3c(N[C@@H]4CCC(=O)N(C)C4)cccn3c2SC(F)(F)F)c(OC)c1 [Example 188]	10 to 100 nM	5 to 10 °C	≥ 10 °C	80 to 90%	750 to 1500 nM	750 to 1500 nM	750 to 1500 nM	≥ 10000 nM
CNC(=O)c1ccc(NCC#Cc2nc3c(N[C@H]4CCc5nncn5C4)cccn3c2SC(F)(F)F)c(OC)c1 [Example 191]	< 10 nM	5 to 10 °C	≥ 10 °C	< 70%	> 3000 nM	> 3000 nM	> 3000 nM	≥ 10000 nM
